The results in this text go back to the supplement of paper PMC10307832.

Holding throughout (assay): relative viability (nuclei count vs DMSO), 5 days (fraction); higher = more cells survive
Compound in the test “Daporinad + Alpelisib”: O=C(/C=C/c1cccnc1)NCCCCC1CCN(C(=O)c2ccccc2)CC1 [Daporinad] + Cc1nc(NC(=O)N2CCC[C@H]2C(N)=O)sc1-c1ccnc(C(C)(C)C(F)(F)F)c1 [Alpelisib] (partner 2 µM)
The method in brief:
(§1)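 The day after seeding in 1536-well plates, lung cancer cell lines were treated by pin tool with a single drug, or with a fixed anchor-drug dose together with five library-drug doses (not always all listed) in √10 steps. After 5 days, a combined fix-and-stain solution (final 0.05% Triton X-100, 1% formaldehyde, 1 ug/ml Hoechst) was added. Nuclei counted on 4× images gave relative viability as treated counts over vehicle counts, reported as the median of duplicate plates.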

Compound in the test “R406 + Bortezomib”: COc1cc(Nc2ncc(F)c(Nc3ccc4c(n3)NC(=O)C(C)(C)O4)n2)cc(OC)c1OC [R406] + CC(C)C[C@H](NC(=O)[C@H](Cc1ccccc1)NC(=O)c1cnccn1)B(O)O [Bortezomib] (partner 0.002 µM)
Summed up:
as §1

Compound in the test “R406 + Lapatinib”: COc1cc(Nc2ncc(F)c(Nc3ccc4c(n3)NC(=O)C(C)(C)O4)n2)cc(OC)c1OC [R406] + CS(=O)(=O)CCNCc1ccc(-c2ccc3ncnc(Nc4ccc(OCc5cccc(F)c5)c(Cl)c4)c3c2)o1 [Lapatinib] (partner 2 µM)
Summed up:
as §1

Compound in the test “Daporinad + OSI-027”: O=C(/C=C/c1cccnc1)NCCCCC1CCN(C(=O)c2ccccc2)CC1 [Daporinad] + COc1cccc2cc(-c3nc([C@H]4CC[C@H](C(=O)O)CC4)n4ncnc(N)c34)[nH]c12 [OSI-027] (partner 0.5 µM)
Summed up:
as §1

Consider UMC-11, for which the relative viability was 0.915 in the test with Daporinad + Alpelisib (first compound 0.0005 µM); 0.979 with Daporinad + Alpelisib (first compound 0.001581 µM); 1.07 in the test with Daporinad + Alpelisib (first compound 0.005 µM); 1.1 in the test with Daporinad + Alpelisib (first compound 0.01581 µM); 0.78 with R406 + Bortezomib (first compound 0.08 µM); 0.996 in the test with R406 + Bortezomib (first compound 0.253 µM). In addition, the relative viability stood at 0.99 with R406 + Bortezomib (first compound 0.8 µM); 0.251 in the test with R406 + Bortezomib (first compound 2.53 µM); 0.342 in the test with R406 + Bortezomib (first compound 8 µM); 0.952 in the test with R406 + Lapatinib (first compound 0.08 µM); 1.08 with R406 + Lapatinib (first compound 0.253 µM); 1.06 with R406 + Lapatinib (first compound 0.8 µM). Besides, the relative viability came to 0.241 in the test with R406 + Lapatinib (first compound 2.53 µM); 0.378 with R406 + Lapatinib (first compound 8 µM); 0.469 with Daporinad + OSI-027 (first compound 0.0005 µM); 0.55 with Daporinad + OSI-027 (first compound 0.001581 µM); 0.567 with Daporinad + OSI-027 (first compound 0.005 µM); 0.689 in the test with Daporinad + OSI-027 (first compound 0.01581 µM).
